Test system: arthritis induced rat
Test: Arthritis induced by type II collagen immunization in rats; increasing rate of hind foot volume
Type: in vivo
Details: for Enhancement of the alleviation effect of amino sugars on arthritis: Experiment 3, saccharide used instead of trehalose in the design of Experiment 1; for Judgment (symbol) of the effect of alleviating arthritis / Relative value of the average of increasing rate of hind foot volume when the average in the control group was regarded as 100: Experiment 1, daily until day 24, GlcN or GlcNAc 100, Ch4S 50, Trehalose 200 mg/kg body weight/day, female Lewis rats
Excerpt: Thirty-six female Lewis rats, aged 6-weeks, were divided into 12 groups consisting of three rats per group. Glucosamine, N-acetylglucosamine, chondroitin 4-sulfate, and crystalline hydrous trehalose, which were all in a reagent grade, and designated as “test compounds” hereinafter), were respectively dissolved in phosphate buffer saline (described as “PBS” hereinafter), and intraperitoneally injected alone or in an appropriate combination daily to the rats of the group Nos. 1 to 11 at the doses in the following Table 2. As a control, PBS was administrated daily to each rat of the group No. 12 at a dose of 1 ml per day by the same administration route as above. Hereinafter, the day number means a day counted from the starting day of administration. In accordance with the method of inducing arthritis by type II collagen immunization described by K. Terato, in “Biomedical research”, Vol. 3, pp. 495-505, 1982, on day 3, 800 μg/head of a type II collagen from bovine in a reagent grade along with Freund's incomplete adjuvant was administered to the dorsal subcutaneous; and on day 10, a fresh preparation of the same collagen and adjuvant as used above were administered at a dose of about 1/10 of that of on day 3. Test compounds were administered to the rats daily until day 24.
During the term of the above experiment, on day 3 just before the administration of collagen and on day 24 just after the administration of the test compounds, both hind foot volumes of every rat were measured according to the method described by D. T. Walz in “Journal of Experimental Therapy”, Vol. 152, pp. 116-121, 1971. Increasing rate (%) of the total hind foot volume of each rat was calculated by substituting the data for the Formula 1 below. Increasing rate of hind foot volume (%)=[{(Measured volume on day 24)−(Measured volume on day 3)}/(Measured volume on day 3)]×100 Formula 1
The effect of alleviating arthritis for each test compound was judged on the basis of the criterion described in the following Table 1, after calculating the averages of increased rates of hind foot volumes in the rats of the group Nos. 1 to 11 and the relative values of the above averages when the average in the control group was regarded as 100. The results are in Table 2
As a result, the effect of glucosamine or N-acetylglucosamine with trehalose was judged as high (symbol “+”) even with the tested minimum amount of 5 mg/kg body weight/day. […]

Compound | Enhancement of the alleviation effect of amino sugars on arthritis | Judgment (symbol) of the effect of alleviating arthritis (intraperitoneal) | Relative value of the average of increasing rate of hind foot volume when the average in the control group was regarded as 100 (intraperitoneal) | further results
OC[C@H]1O[C@H](O[C@H]2[C@H](O)[C@@H](O)C(O)O[C@@H]2CO)[C@H](O)[C@@H](O)[C@@H]1O (mixture of isomers) [maltose] | no enhanced effect |  |  | 
N[C@H]1C(O)O[C@H](CO)[C@@H](O)[C@@H]1O (some centres unmarked) [GlcN, glucosamine] |  | − (67 or more) | 88 | 
CC(=O)N[C@H]1C(O)O[C@H](CO)[C@@H](O)[C@@H]1O (some centres unmarked) [GlcNAc, N-acetylglucosamine] |  | − (67 or more) | 89 | 
OC[C@H]1O[C@H](O[C@H]2O[C@H](CO)[C@@H](O)[C@H](O)[C@H]2O)[C@H](O)[C@@H](O)[C@@H]1O [Trehalose, trehalose] |  | − (67 or more) | 98 | Increasing rate of hind foot volume compared with the control group (Experiment 1, group No. 6, trehalose alone 200 mg/kg body weight/day, intraperitoneal): No difference
COc1ccc2c(c1)c(CC(=O)O)c(C)n2C(=O)c1ccc(Cl)cc1 [indomethacin] |  |  |  | Increasing rate of hind foot volume (3 mg/kg body weight, some rats, data not shown): < 20%
OC[C@@H](O)[C@@H](O[C@H]1O[C@H](CO)[C@@H](O)[C@H](O)[C@H]1O)[C@H](O)[C@@H](O)CO [maltitol] | no enhanced effect |  |  | 
OC[C@H]1O[C@@H](O[C@H]2O[C@H](CO)[C@@H](O)[C@H](O)[C@H]2O)[C@H](O)[C@@H](O)[C@@H]1O [neotrehalose] | no enhanced effect |  |  | 
OC[C@@H](O)[C@@H](O)[C@H](O)[C@@H](O)CO [sorbitol] | no enhanced effect |  |  | 
chondroitin 4-sulfate [Ch4S] |  | − (67 or more) | 95 | 

From US20050277617A1, “Drugs against articular failure” (KABUSHIKI KAISHA HAYASHIBARA SEIBUTSU KAGAKU KENKYUJO, priority 2000, published 2005)
